# Test results as given in patent US10487045B2, “Adamantane derivative and use thereof” (TOHOKU UNIVERSITY, priority 2016, dated 2019).
# Experiments:
# Kir6.2 channel = target: T1, Kir6.2 channel (Mus musculus, UniProt Q61743); assay: Patch-clamp measurement of outward potassium current in Kir6.2 channel-overexpressing cells; type: cell-based; conditions: 10 nM TP-014, Kir6.2 channel-overexpressing cells, membrane potential changed toward a plus side
# T1 construct: expressed in transfected cells; host or cells: Neuro2A (N2A) cells, transient transfection with pcDNA3.1-Kir6.2 (gift of Dr. Toru Ishizuka, Tohoku University)
# T1 sequence (Q61743 1-390): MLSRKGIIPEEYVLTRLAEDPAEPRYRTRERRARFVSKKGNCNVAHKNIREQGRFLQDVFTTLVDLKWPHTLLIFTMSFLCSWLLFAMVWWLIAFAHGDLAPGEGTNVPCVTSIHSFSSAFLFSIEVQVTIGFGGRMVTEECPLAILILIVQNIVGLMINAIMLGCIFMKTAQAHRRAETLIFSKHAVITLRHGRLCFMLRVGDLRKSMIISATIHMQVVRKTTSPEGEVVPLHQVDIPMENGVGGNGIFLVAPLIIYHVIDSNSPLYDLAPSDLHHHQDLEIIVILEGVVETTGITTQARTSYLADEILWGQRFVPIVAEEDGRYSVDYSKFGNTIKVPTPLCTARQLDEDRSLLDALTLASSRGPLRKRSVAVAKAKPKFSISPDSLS
# Method: Using Kir6.2 channel-overexpressing cells obtained in Test Example 1, potassium current flowing outside from the cells was measured by an ordinary patch-clamp method. ATP-sensitive potassium channel (Kir6.2 channel) was localized in the cell membrane of the nerve cells. If the channel is inhibited and closed, the threshold of the nerve cell membrane rises to produce a state analogous to the state where an action potential is temporarily generated, with the result that potassium current flows out from cells outside and, in place, calcium current flows into the cells from outside. […] This was confirmed by applying immunoblotting (the same conditions as in Test Example 1 were employed except that anti-Kir6.2 channel antibody, n=5) with an anti-Kir6.2 channel antibody (prepared based on a customary method) to Kir6.2 channel-overexpressing cells (prepared by the aforementioned method).
# APP23 mice = assay: Long-term potentiation (LTP) in hippocampal slices, electrophysiological technique; type: in vivo; conditions: hippocampal slices of APP23 mice chronically treated
# Method: FIG. 4e to FIG. 4g show the results of long-term potentiation phenomenon (LTP)(serving as an index of memory formation) analyzed by an electrophysiological technique. The hippocampus in the brain plays an important role in memorization. The hippocampus was cut into slice sections (400 micrometers in thickness). The slice sections were placed in an artificial cerebrospinal fluid (126 mM NaCl, 5 mM KCL, 26 mM NaHCO3, 1.3 mM MgSO4-7H2O, 1.26 mM KH2PO4, 2.4 mM CaCl2-2H2O, 10 mM glucose) saturated with a 95% O2/5% CO2 gas at 34° C. for two hours and recovered. The hippocampal slice sections were transferred to a measuring chamber and the artificial cerebrospinal fluid containing TP-014 was perfused. The activity of the nerve cells when electrical stimulation was applied was recorded and the postsynaptic assembly potential (fEPSP) was measured. Based on them, the degree of LTP improvement was evaluated. Thereafter, an electrical stimulation (100 Hz) was applied to the hippocampus to cause a […] (it is considered that memory is formed by a […] in the hippocampus). It was confirmed that an increase rate of the neuronal excitation decreases in APP23 mice; whereas the increase rate is improved in the mice chronically treated with TP-014.
# Kir6.2 defective mice = assay: Immunoblotting of hippocampus for CaMKII activation in Kir6.2 defective mice; type: in vivo; conditions: chronic treatment
# Method: Activation of CaMKII was investigated in the same manner as in FIGS. 4 to 7. In addition, GluA1 (Ser-831), which is known as a molecule activated by activation of CaMKII, was investigated. Hippocampal slices were suspended in an SDS sample buffer to prepare a suspension, which was subjected to immunoblotting. In this way, the intracellular mechanism of cognitive dysfunction in Kir6.2 defective mice was analyzed. The results are shown in FIG. 9 (FIG. 9a: band images by immunoblotting, FIG. 9b: quantification results of signal intensities of bands). In the hippocampus of Kir6.2 defective mice, activation of CaMKII was accelerated. Even in the case of chronic treatment with TP-014, no influence was observed.
# OBX mice = assay: Depression-like symptom: tail-suspension method and forced swim method in OBX mice; type: in vivo; conditions: chronic administration 2 weeks
# Method: OBX mice were originally established as depression model mice although a deterioration of cognitive function was observed. Depression was analyzed by a tail-suspension method (a) and a forced swim method (b). The tail-suspension method is a method of pinching the tail of a mouse and hanging the mouse upside down. If the mouse hung has depression, immobility time is long. Since a normal mouse moves even if it is hung, the immobility time is short. In the forced swim method, a mouse is forced to swim in water in a beaker. A mouse having depression neither swims nor moves (just floating). Thus the immobility time is measured. Immobility time was long in OBX mice both in the tail-suspension method (a) and the forced swim method (b). The immobility time of a TP-014 chronic administration group (2 weeks, in the same administration method as that previously mentioned) was improved.
smiles,measurement,setting,value
"O=C(N[C@@H](c1ccccc1)[C@H]1[C@H]2C[C@@H]3C[C@](Cl)(C2)C[C@@]1(OC(=O)C(F)(F)F)C3)C(F)(F)F [TP-014, (1S,2R,3S,5S,7S)-5-chloro-2-((R)-phenyl(2,2,2-trifluoroacetamido)methyl)adamantan-1-yl 2,2,2-trifluoroacetate]",outward potassium current,Kir6.2 channel,suppressed
same,"LTP, increase rate of neuronal excitation (fEPSP) after 100 Hz stimulation",APP23 mice,improved
same,activation of CaMKII in hippocampus of Kir6.2 defective mice,Kir6.2 defective mice,no influence
same,immobility time (tail-suspension method and forced swim method),OBX mice,improved
